Experimental data taken from BigSolDB 2.1.

C[C@H]1[C@H](C)CC[C@]2(C(=O)O)CC[C@]3(C)C(=CC[C@@H]4[C@@]5(C)CC[C@H](O)C(C)(C)[C@@H]5CC[C@]43C)[C@H]12
solubility (mole fraction)
Settings | 278.15 K | 283.15 K | 288.15 K | 293.15 K | 298.15 K | 303.15 K | 308.15 K | 313.15 K | 318.15 K | 323.15 K
in acetone | 0.000384 | 0.000473 | 0.00058 | 0.000707 | 0.000836 | 0.001 | 0.00119 | 0.00139 | 0.00162 | 0.00187
in methanol | 0.000447 | 0.000505 | 0.000579 | 0.000662 | 0.000746 | 0.000842 | 0.000955 | 0.00107 | 0.00121 | 0.00135
in water | 1.16e-07 | 1.34e-07 | 1.55e-07 | 1.76e-07 | 2.02e-07 | 2.28e-07 | 2.57e-07 | 2.88e-07 | 3.18e-07 | 3.54e-07
